One data set deals with Aspergillus fumigatus. Put plainly: Antifungal activity against Aspergillus fumigatus after 72 hrs by microbroth dilution technique. It counts as functional.
The next data set has as its system Cryptococcus neoformans. Put plainly: Antifungal activity against Cryptococcus neoformans after 72 hrs by microbroth dilution technique. It counts as functional. For orientation: Broth dilution looks for growth in wells or tubes with falling amounts of substance.
Data set [1] relates to Trichophyton mentagrophytes. Put plainly: Antifungal activity against Trichophyton mentagrophytes after 96 hrs by microbroth dilution technique. It counts as functional.
The subject of another data set is Candida albicans. Put plainly: Antifungal activity against Candida albicans after 48 hrs by microbroth dilution technique. It counts as functional.
A further data set concerns Sporothrix schenckii. The data set can be described thus: Antifungal activity against Sporothrix schenckii after 72 hrs by microbroth dilution technique. Format: functional.
The subject of another data set is Candida parapsilosis. Put plainly: Antifungal activity against Candida parapsilosis after 48 hrs by microbroth dilution technique. Format: functional.
Data set [2] concerns L929. The data set can be described thus: Cytotoxicity against mouse L929 cells at >3.12 ug/ml after 24 hrs using Giemsa staining by phase contrast microscopy. It counts as cell-based. The note with it: l929, 24 h.
In data set [3] the test system is L929. Put plainly: Cytotoxicity against mouse L929 cells up to 3.12 ug/ml after 24 hrs using Giemsa staining by phase contrast microscopy. It counts as cell-based. The note with it: l929, 24 h.
Setting [4] is: Aspergillus fumigatus, 72 h, read-out: MIC.
[5] abbreviates: Cryptococcus neoformans, 72 h, read-out: MIC.
Setting [6] is: Trichophyton mentagrophytes, 96 h, read-out: MIC.
[7] abbreviates: Candida albicans, 48 h, read-out: MIC.
Setting [8] is: Sporothrix schenckii, 72 h, read-out: MIC.
[9] abbreviates: Lodderomyces parapsilosis, 48 h, read-out: MIC.

SMILES strings stand for the structures. In brackets after ≈: the same amount, converted by molar mass.

A word on the MIC: it is the lowest concentration that inhibits growth of the organism. In the case of `CCCCCCc1cn(C[C@@](O)(Cn2cncn2)c2ccc(F)cc2F)nn1`, the MIC in the data set with Aspergillus fumigatus (setting [4]) stood at 50 µg/mL (≈ 128 µM); in the data set on Cryptococcus neoformans (setting [5]), 50 µg/mL (≈ 128 µM); in data set [1] (setting [6]), 6.25 µg/mL (≈ 16 µM); with Candida albicans (setting [7]) it was 0.0225 µg/mL (≈ 0.0576 µM); with Sporothrix schenckii (setting [8]) it was 0.78 µg/mL (≈ 2 µM); with Candida parapsilosis (setting [9]) it was 0.19 µg/mL (≈ 0.487 µM).

In the case of `CCCCCCc1cn(C[C@](O)(Cn2cncn2)c2ccc(F)cc2F)nn1`, the MIC in the data set on Aspergillus fumigatus (setting [4]) was more than 50 µg/mL; with Cryptococcus neoformans (setting [5]), 50 µg/mL (≈ 128 µM); in data set [1] (setting [6]) it was 50 µg/mL (≈ 128 µM); in the data set with Candida albicans (setting [7]) it was 50 µg/mL (≈ 128 µM); in the data set on Sporothrix schenckii (setting [8]), 50 µg/mL (≈ 128 µM); in the data set on Candida parapsilosis (setting [9]) it was more than 50 µg/mL.

Regarding `CCCCCCCCn1nncc1CC(O)(Cn1cncn1)c1ccc(F)cc1F` (racemic), the MIC in the data set on Aspergillus fumigatus (setting [4]) was more than 50 µg/mL; in the data set on Cryptococcus neoformans (setting [5]), 50 µg/mL (≈ 119 µM); in data set [1] (setting [6]) it was 50 µg/mL (≈ 119 µM); in the data set with Candida albicans (setting [7]), 0.39 µg/mL (≈ 0.932 µM); in the data set on Sporothrix schenckii (setting [8]), 6.25 µg/mL (≈ 14.9 µM); in the data set on Candida parapsilosis (setting [9]) it was 50 µg/mL (≈ 119 µM).

For the compound `CCCCCCc1cnnn1CC(O)(Cn1cncn1)c1ccc(F)cc1F` (racemic), the MIC with Aspergillus fumigatus (setting [4]) was 25 µg/mL (≈ 64 µM); in the data set on Cryptococcus neoformans (setting [5]) it was 50 µg/mL (≈ 128 µM); in data set [1] (setting [6]) it was 50 µg/mL (≈ 128 µM); against Candida albicans it was 0.078 µg/mL (≈ 0.2 µM); in the data set with Sporothrix schenckii, 3.12 µg/mL (≈ 7.99 µM); with Candida parapsilosis (setting [9]), more than 50 µg/mL.

`CCCCCCCCn1cc(CC(O)(Cn2cncn2)c2ccc(F)cc2F)nn1` (racemic): the MIC against Aspergillus fumigatus is 3.12 µg/mL (≈ 7.46 µM); in the data set with Cryptococcus neoformans (setting [5]) it was 25 µg/mL (≈ 59.7 µM); in data set [1], 0.39 µg/mL (≈ 0.932 µM); in the data set on Candida albicans, 0.007 µg/mL (≈ 0.0167 µM); against Sporothrix schenckii, 0.045 µg/mL (≈ 0.108 µM); in the data set with Candida parapsilosis it was 0.0112 µg/mL (≈ 0.0268 µM). Besides, the Activity result was “Toxic” in the data set on L929 [2] and “Non-toxic” in the data set with L929 [3].

`CCCCCCc1cn(CC(O)(Cn2cncn2)c2ccc(F)cc2F)nn1` (racemic): the MIC with Aspergillus fumigatus (setting [4]) is 25 µg/mL (≈ 64 µM); with Cryptococcus neoformans (setting [5]) it was 25 µg/mL (≈ 64 µM); in data set [1] (setting [6]), 12.5 µg/mL (≈ 32 µM); in the data set on Candida albicans (setting [7]), 0.09 µg/mL (≈ 0.231 µM); in the data set on Sporothrix schenckii (setting [8]) it was 0.78 µg/mL (≈ 2 µM); with Candida parapsilosis (setting [9]) it was 0.39 µg/mL (≈ 0.999 µM).

Consider `CCCCCCCCn1cc(CC(O)(Cn2cncn2)c2ccc(F)cc2F)nn1` (stereo in doubt; 2A), for which the minimal inhibitory concentration (MIC) came to 0.19 µg/mL (≈ 0.454 µM) in data set [1], 0.0011 µg/mL (≈ 0.00263 µM) with Candida albicans, 0.0225 µg/mL (≈ 0.0538 µM) in the data set with Sporothrix schenckii and 0.0011 µg/mL (≈ 0.00263 µM) in the data set with Candida parapsilosis.

In the case of `CCCCCCCCn1cc(CC(O)(Cn2cncn2)c2ccc(F)cc2F)nn1` (stereo in doubt; 2B), the MIC came to 50 µg/mL (≈ 119 µM) in the data set with Aspergillus fumigatus; 25 µg/mL (≈ 59.7 µM) against Cryptococcus neoformans; 25 µg/mL (≈ 59.7 µM) in data set [1]; 12.5 µg/mL (≈ 29.9 µM) against Candida albicans; 12.5 µg/mL (≈ 29.9 µM) in the data set on Sporothrix schenckii; 50 µg/mL (≈ 119 µM) in the data set on Candida parapsilosis.

On to `CCCCCCc1cnnn1CC(O)(Cn1cncn1)c1ccc(F)cc1F` (stereo in doubt; 9A), for which the minimum inhibitory concentration (MIC) is more than 50 µg/mL against Aspergillus fumigatus; 50 µg/mL (≈ 128 µM) with Cryptococcus neoformans; 0.039 µg/mL (≈ 0.0999 µM) against Candida albicans; 1.56 µg/mL (≈ 4 µM) against Sporothrix schenckii; 50 µg/mL (≈ 128 µM) in the data set with Candida parapsilosis.

As to `CCCCCCc1cnnn1CC(O)(Cn1cncn1)c1ccc(F)cc1F` (stereo in doubt; 9B), the MIC is more than 50 µg/mL in the data set on Cryptococcus neoformans, 50 µg/mL (≈ 128 µM) in data set [1], more than 50 µg/mL in the data set on Candida albicans and more than 50 µg/mL against Sporothrix schenckii.

On to `C[C@@H]1[C@H](O)[C@@H](C)/C=C/C=C/C=C/C=C/C=C/C=C/C=C/[C@H](O[C@@H]2O[C@H](C)[C@@H](O)[C@H](N)[C@@H]2O)C[C@@H]2O[C@](O)(C[C@@H](O)C[C@@H](O)[C@H](O)CC[C@@H](O)C[C@@H](O)CC(=O)O[C@H]1C)C[C@H](O)[C@H]2C(=O)O` [AMPHOTERICIN B], for which the MIC in the data set on Aspergillus fumigatus (setting [4]) was found to be 0.5 µg/mL (≈ 0.541 µM); with Cryptococcus neoformans (setting [5]), 0.06 µg/mL (≈ 0.0649 µM); in data set [1] (setting [6]), 0.12 µg/mL (≈ 0.13 µM); in the data set with Candida albicans (setting [7]) it was 0.12 µg/mL (≈ 0.13 µM); in the data set with Sporothrix schenckii (setting [8]), 0.12 µg/mL (≈ 0.13 µM); with Candida parapsilosis (setting [9]) it was 0.12 µg/mL (≈ 0.13 µM).

Take `OC(Cn1cncn1)(Cn1cncn1)c1ccc(F)cc1F` [FLUCONAZOLE]: the MIC with Aspergillus fumigatus (setting [4]) amounted to 2 µg/mL (≈ 6.53 µM); with Cryptococcus neoformans (setting [5]), 1 µg/mL (≈ 3.27 µM); in data set [1] (setting [6]) it was 1 µg/mL (≈ 3.27 µM); in the data set on Candida albicans (setting [7]), 0.5 µg/mL (≈ 1.63 µM); in the data set with Sporothrix schenckii (setting [8]), 2 µg/mL (≈ 6.53 µM); in the data set with Candida parapsilosis (setting [9]), 1 µg/mL (≈ 3.27 µM).

The record behind these values is ChEMBL document CHEMBL3217659, “Synthesis and antifungal activity of 1,5-disubstituted-1,2,3-triazole containing fluconazole analogues” (Medchemcomm, 2012).
